Assays:
Test in all cases: KINOMEscan competition binding
Conditions in all cases: compound 10.0 µM
[1] = system: FGFR3 (human), P22607 [G697C]
[2] = system: LRRK2 (human), Q5S007 [G2019S]
[3] = system: BMX (human), P51813 [V600E]
[4] = system: KIT (human), P10721 [A829P]
[5] = system: RET (human), P07949 [V804L]
[6] = system: EGFR (human), P00533 [A750P; 747-749 del]
[7] = system: PIK3CA (human), P42336 [M1043I]
[8] = system: KIT (human), P10721 [D816H]
[9] = system: EGFR (human), P00533 [L858R]
[10] = system: PIK3CA (human), P42336 [H1047L]
PIK3CA (human), P42336 [H1047L], sequence (P42336 whole entry H1047L, looked up): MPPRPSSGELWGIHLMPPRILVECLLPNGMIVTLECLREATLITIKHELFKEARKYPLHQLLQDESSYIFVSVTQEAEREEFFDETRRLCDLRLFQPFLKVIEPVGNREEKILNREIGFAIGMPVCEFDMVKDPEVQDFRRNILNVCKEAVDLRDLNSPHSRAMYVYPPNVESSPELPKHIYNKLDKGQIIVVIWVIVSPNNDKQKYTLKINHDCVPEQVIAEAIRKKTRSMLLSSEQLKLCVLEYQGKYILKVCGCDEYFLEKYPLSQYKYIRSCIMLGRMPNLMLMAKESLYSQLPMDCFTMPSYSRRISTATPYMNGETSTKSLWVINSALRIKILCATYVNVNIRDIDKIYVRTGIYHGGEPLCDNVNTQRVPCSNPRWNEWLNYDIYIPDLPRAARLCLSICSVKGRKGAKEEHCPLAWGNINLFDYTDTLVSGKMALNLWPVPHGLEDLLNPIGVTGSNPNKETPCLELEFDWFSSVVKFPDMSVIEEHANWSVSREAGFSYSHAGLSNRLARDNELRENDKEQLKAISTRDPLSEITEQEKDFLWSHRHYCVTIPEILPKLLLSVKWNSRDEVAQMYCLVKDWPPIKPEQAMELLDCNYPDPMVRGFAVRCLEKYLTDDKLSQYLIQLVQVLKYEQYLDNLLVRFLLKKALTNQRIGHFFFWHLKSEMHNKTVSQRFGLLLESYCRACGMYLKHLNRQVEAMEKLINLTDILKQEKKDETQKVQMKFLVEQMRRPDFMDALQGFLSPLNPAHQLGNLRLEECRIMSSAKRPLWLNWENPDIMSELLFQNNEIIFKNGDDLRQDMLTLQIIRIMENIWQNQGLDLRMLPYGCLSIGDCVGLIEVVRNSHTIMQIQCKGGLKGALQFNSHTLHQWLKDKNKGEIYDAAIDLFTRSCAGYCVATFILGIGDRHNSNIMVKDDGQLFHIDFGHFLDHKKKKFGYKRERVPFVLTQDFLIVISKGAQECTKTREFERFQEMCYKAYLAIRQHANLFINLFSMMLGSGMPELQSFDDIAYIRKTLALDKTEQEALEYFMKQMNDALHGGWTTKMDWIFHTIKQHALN

[11] = system: FLT3 (human), P36888 [D835Y]
[12] = system: MET (human), P08581 [M1250T]
[13] = system: PIK3CA (human), P42336 [E542K]
PIK3CA (human), P42336 [E542K], sequence (P42336 whole entry E542K, looked up): as the sequence (P42336 whole entry H1047L, looked up) above, with E542K, L1047H counted along it

[14] = system: EGFR (human), P00533 [G719C]

PIK3CA (human), P42336 [M1043I], sequence (P42336 whole entry M1043I, looked up): as the sequence (P42336 whole entry H1047L, looked up) above, with M1043I, L1047H counted along it
RET (human), P07949 [V804L], sequence (P07949 whole entry V804L, looked up): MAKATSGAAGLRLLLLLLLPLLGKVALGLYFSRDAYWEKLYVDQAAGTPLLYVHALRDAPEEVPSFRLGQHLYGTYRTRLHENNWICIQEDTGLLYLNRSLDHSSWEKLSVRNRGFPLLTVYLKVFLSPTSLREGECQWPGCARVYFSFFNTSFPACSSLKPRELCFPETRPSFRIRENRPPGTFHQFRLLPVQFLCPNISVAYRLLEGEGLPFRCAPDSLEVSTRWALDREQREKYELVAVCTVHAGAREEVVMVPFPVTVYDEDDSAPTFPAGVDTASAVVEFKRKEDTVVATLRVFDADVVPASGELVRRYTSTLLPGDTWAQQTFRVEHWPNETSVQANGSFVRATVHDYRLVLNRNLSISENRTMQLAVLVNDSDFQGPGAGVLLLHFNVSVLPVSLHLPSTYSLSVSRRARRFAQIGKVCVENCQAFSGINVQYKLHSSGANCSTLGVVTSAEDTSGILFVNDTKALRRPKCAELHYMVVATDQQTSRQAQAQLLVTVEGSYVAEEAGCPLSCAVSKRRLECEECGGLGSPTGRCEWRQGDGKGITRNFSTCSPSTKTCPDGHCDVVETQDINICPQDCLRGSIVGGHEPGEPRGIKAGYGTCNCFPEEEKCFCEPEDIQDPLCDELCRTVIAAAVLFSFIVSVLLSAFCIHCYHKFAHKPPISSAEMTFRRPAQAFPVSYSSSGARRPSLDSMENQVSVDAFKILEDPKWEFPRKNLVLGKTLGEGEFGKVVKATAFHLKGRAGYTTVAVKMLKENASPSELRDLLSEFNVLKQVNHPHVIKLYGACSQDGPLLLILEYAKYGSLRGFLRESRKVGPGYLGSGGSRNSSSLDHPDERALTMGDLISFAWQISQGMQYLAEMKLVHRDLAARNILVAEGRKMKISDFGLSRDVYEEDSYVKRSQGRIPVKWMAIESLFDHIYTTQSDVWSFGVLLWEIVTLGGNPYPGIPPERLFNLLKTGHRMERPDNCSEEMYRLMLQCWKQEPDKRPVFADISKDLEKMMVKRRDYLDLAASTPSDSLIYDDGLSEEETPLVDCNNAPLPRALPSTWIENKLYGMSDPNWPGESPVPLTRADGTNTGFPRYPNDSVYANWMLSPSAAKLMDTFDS
KIT (human), P10721 [A829P], sequence (P10721 whole entry A829P, looked up): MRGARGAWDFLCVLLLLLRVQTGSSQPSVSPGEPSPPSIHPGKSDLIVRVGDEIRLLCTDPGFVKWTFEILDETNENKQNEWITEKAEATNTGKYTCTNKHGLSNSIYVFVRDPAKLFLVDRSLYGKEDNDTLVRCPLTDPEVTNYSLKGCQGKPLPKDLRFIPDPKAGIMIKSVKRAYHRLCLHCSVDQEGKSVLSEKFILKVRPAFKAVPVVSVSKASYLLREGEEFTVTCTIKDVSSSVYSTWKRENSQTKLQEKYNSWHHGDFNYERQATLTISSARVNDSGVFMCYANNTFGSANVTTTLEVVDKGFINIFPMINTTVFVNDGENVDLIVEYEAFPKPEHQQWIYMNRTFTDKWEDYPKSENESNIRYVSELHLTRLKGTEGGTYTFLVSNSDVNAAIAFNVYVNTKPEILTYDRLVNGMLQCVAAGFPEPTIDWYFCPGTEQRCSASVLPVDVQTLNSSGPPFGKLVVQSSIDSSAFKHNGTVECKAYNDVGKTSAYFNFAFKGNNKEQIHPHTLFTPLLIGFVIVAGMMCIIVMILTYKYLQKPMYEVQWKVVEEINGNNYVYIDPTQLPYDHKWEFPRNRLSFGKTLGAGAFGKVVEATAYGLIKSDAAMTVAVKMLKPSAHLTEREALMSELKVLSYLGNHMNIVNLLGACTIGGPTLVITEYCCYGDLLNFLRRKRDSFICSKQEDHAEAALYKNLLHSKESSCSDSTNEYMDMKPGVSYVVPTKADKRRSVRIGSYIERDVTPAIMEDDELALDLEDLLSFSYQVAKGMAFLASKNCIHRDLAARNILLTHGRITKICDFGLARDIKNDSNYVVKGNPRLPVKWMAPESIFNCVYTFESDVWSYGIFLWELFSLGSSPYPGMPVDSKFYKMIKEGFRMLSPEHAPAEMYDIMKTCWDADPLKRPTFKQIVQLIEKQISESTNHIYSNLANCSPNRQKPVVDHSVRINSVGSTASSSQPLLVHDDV
FGFR3 (human), P22607 [G697C], sequence (P22607 whole entry G697C, looked up): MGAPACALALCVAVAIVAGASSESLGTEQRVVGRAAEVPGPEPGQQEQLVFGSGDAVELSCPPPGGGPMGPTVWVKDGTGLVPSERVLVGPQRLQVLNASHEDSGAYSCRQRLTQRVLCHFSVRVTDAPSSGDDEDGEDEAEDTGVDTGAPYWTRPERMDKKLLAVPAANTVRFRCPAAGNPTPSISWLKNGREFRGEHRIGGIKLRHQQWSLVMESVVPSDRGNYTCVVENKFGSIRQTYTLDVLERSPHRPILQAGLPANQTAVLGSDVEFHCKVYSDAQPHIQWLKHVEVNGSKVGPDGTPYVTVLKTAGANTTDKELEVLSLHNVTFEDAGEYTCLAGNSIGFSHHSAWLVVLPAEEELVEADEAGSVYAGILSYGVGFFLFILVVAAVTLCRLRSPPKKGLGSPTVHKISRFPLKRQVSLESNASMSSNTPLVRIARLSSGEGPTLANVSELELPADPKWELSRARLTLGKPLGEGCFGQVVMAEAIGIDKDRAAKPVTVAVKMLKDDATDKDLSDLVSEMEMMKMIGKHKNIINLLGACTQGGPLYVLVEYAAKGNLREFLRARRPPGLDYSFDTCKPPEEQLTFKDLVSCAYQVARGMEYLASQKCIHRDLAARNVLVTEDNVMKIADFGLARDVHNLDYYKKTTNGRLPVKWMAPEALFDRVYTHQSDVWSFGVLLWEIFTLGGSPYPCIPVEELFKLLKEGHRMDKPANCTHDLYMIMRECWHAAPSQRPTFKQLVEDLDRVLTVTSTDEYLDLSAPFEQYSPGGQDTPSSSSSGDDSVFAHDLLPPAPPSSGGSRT
BMX (human), P51813 [V600E], sequence (P51813 whole entry, looked up, stated change not applied): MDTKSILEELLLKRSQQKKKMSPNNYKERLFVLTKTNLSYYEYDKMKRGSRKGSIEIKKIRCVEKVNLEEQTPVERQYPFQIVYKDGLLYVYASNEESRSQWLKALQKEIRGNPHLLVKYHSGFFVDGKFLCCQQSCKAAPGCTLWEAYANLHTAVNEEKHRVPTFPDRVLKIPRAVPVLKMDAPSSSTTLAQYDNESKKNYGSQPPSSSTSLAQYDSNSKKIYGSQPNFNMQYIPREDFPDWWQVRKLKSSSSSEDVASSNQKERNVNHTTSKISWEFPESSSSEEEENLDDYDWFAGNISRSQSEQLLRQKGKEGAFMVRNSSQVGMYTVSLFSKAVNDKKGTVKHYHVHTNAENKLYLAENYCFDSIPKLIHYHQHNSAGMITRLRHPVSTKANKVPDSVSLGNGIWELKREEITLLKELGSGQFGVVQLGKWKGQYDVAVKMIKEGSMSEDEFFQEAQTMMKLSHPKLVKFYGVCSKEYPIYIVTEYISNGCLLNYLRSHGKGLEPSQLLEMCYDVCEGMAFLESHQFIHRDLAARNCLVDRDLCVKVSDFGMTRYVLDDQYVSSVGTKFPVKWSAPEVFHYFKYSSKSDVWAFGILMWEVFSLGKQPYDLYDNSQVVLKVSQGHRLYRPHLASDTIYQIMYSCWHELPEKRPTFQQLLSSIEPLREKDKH
KIT (human), P10721 [D816H], sequence (P10721 whole entry D816H, looked up): as the sequence (P10721 whole entry A829P, looked up) above, with D816H, P829A counted along it

Structure (SMILES)	kinase still bound, per cent of control [1] [%]	kinase still bound, per cent of control [2] [%]	kinase still bound, per cent of control [3] [%]	kinase still bound, per cent of control [4] [%]	kinase still bound, per cent of control [5] [%]	kinase still bound, per cent of control [6] [%]	kinase still bound, per cent of control [7] [%]	kinase still bound, per cent of control [8] [%]	kinase still bound, per cent of control [9] [%]	kinase still bound, per cent of control [10] [%]	kinase still bound, per cent of control [11] [%]	kinase still bound, per cent of control [12] [%]	kinase still bound, per cent of control [13] [%]	kinase still bound, per cent of control [14] [%]
C[C@@H](Oc1cc(-n2cnc3ccc(CN4CCN(C)CC4)cc32)sc1C(N)=O)c1ccccc1C(F)(F)F	75	40	58	29	100	81	63	40	86	16	21	93	91	100
CN(C)C/C=C/C(=O)Nc1ccc(C(=O)Nc2cccc(Nc3nccc(-c4cccnc4)n3)c2)cc1	84	76	63	64	84	100	100	51	99	100	18	100	100	83
CN(C)C/C=C/C(=O)Nc1cccc(Nc2ncc3c(n2)N(C)c2ccccc2C(=O)N3C)c1	12	6.1	59	40	0.15	71	39	33	73	16	1.4	43	39	14
Cc1ccc(NC(=O)c2cccc(C(C)(C)C#N)c2)cc1Nc1ccc2ncn(C)c(=O)c2c1	100	69	0	100	31	11	89	57	48	100	100	64	100	49
O=c1cc(N2CCOCC2)oc2c(-c3cccc4c3sc3ccccc34)cccc12	94	100	95	96	100	91	17	100	89	4.4	79	67	27	100
C=CC(=O)Nc1cccc(Nc2nc(N[C@H]3CC[C@H](N(C)C)CC3)nc3c2ncn3C(C)C)c1	99	45	85	23	80	76	100	27	99	100	0.85	100	100	79
